From US20250281617A1, “Drug Delivery System” (The University of Birmingham, priority 2019, published 2025)
Where two headings read alike, the source gives them in different places.

Legend:
[1] = Delivery of fluorescent (FAM-tagged) peptide across chicken egg epithelial membrane with polyamine/amine carrier; settings: fold versus control without carrier; Example 5
[2] = chicken, 60 seconds
[3] = Delivery of lutein across chicken egg epithelial membrane with polyamine/amine carrier
Protocol: The membrane was washed in deionized water.
Lutein is a naturally occurring carotenoid that reduces the progression of age-related macular degeneration and cataracts. Lutein has a characteristic absorbance which can be measured using a plate reader, and thus it was not necessary to label the lutein with FAM. The absorbance of the solution which had crossed the membrane was measured and compared to the absorbance of the stock solution.

[4] = Delivery of fluorescence-labelled bevacizumab across chicken egg epithelial membrane with polyamine/amine carrier; settings: for improvement in the amount of bevacizumab transported across the membrane: versus control without carrier; for improvement in the amount of bevacizumab transported across the membrane / amount of bevacizumab transported across the membrane compared to the control sample: Example 5; for amount of bevacizumab transported across the membrane compared to the control sample: fold versus control without carrier
[5] = chicken, 60 seconds; remark: listed apart in the source
[6] = Delivery of fluorescence-labelled bevacizumab into the posterior segment of ex vivo porcine eyes; format: in vitro ADME; settings: various incubation times
Protocol: Further tests on porcine eyes was carried out with fluorescence-labelled bevacizumab. […] The same methodology as described in Example 3 was used, but with various incubation times.

[7] = versus control without carrier, Example 5

Row | Compound | % peptide transported across membrane [2] | % peptide transported across membrane ([3]; chicken, 60 seconds) | amount of lutein transported across the membrane (bound stated in text) ([3]; chicken, 60 seconds) | further results
1 | NCCCN [1,3-Diaminopropane] |  |  |  | % peptide transported across membrane ([4]; Table 3, fluorescence-labelled bevacizumab with the named polyamine or amine moiety, methodology of Example 1): 4.4%; improvement in the amount of bevacizumab transported across the membrane [4]: did not significantly improve; % peptide transported across membrane ([3]; Table 2, lutein with the named polyamine or amine moiety, methodology of Example 1): 0.2%; improvement in the amount of lutein transported across the membrane [3, 7]: did not significantly improve
2 | NCCCNCCCN [Bis(3-aminopropyl)amine] |  |  |  | amount of peptide transported across the membrane compared with the control test [1]: five times more peptide; amount of bevacizumab transported across the membrane compared to the control sample [4]: more than twice as much
3 | NCCCCCN [Cadaverine] |  |  |  | amount of bevacizumab transported across the membrane compared to the control sample [4]: more than twice as much
4 | CCCCNCCCC [Dibutylamine] | 4.0% | 10.7% | > 5% | 
5 | NCCN [Ethylenediamine] | 5.7% | 2.3% |  | improvement in the amount of bevacizumab transported across the membrane [4]: did not significantly improve; improvement in the amount of lutein transported across the membrane [3, 7]: did not significantly improve
6 | NCCC(=O)N[C@@H](Cc1cnc[nH]1)C(=O)O [L-Carnosine] |  |  |  | % peptide transported across membrane [3]: 7.4%; amount of lutein transported across the membrane (bound stated in text) [3]: > 5%
7 | CNCCN [N-Methylethylenediamine] |  |  |  | % peptide transported across membrane [3]: 20.9%; amount of lutein transported across the membrane (bound stated in text) [3]: > 20%
8 | NCCCCNCCCN [Spermidine] | 22.3% | 25.7% | > 20% | amount of peptide transported across the membrane compared with the control test [1]: five times more peptide; effect of longer incubation time on amount of bevacizumab transported into the eye tissue [6]: increased with increasing incubation time
9 | NCCCNCCCCNCCCN [Spermine] | 28.1% | 27.8% | > 20% | amount of peptide transported across the membrane compared with the control test [1]: twice as much peptide; effect of longer incubation time on amount of bevacizumab transported into the eye tissue [6]: did not result in higher delivery
10 | NCCNCCNCCNCCN [Tetraethylenepentamine] | 19.7% | 11.5% | > 5% | % peptide transported across membrane [5]: 28.8%
11 | CCN(CC)CC [Triethylamine] | 7.1% | 2.2% |  | improvement in the amount of lutein transported across the membrane [3]: did not significantly improve
12 | NC(N)=O [Urea] |  |  |  | % peptide transported across membrane [3]: 1.7%
13 | CC1=C[C@H](O)CC(C)(C)[C@H]1/C=C/C(C)=C/C=C/C(C)=C/C=C/C=C(C)/C=C/C=C(C)/C=C/C1=C(C)C[C@@H](O)CC1(C)C [lutein, Lutein, reference compound] |  |  |  | lutein crossed the membrane ([3]; chicken, 60 seconds): about 6%; lutein transported across the membrane ([3]; chicken, 60 seconds): 0.5%

Second part, led by results:

Row | % peptide transported across membrane [2] | % peptide transported across membrane ([3]; chicken, 60 seconds) | amount of lutein transported across the membrane (bound stated in text) ([3]; chicken, 60 seconds) | Compound | further results
14 | 14.1% | 22.0% | > 20% | NCCCNCCNCCCN [1,2-Bis(3-aminopropylamino)ethane] | amount of peptide transported across the membrane compared with the control test [1]: twice as much peptide
15 | 3.4% | 6.5% | > 5% | CNCCCN [3-(Methylamino)propylamine] | 
16 | 4.0% | 8.0% | > 5% | N=C(N)N [Guanidine] | % peptide transported across membrane [5]: 7.9%
17 | 9.1% | 6.7% | > 5% | CC(C)N(CCN)C(C)C [N,N-Diisopropylethylenediamine] | % peptide transported across membrane [5]: 3.3%
18 | 32.4% | 19.5% | > 5% | NCCCNCCCNCCCN [N,N′-Bis(3-aminopropyl)-1,3-propanediamine] | amount of peptide transported across the membrane compared with the control test [1]: five times more peptide
19 | 6.9% | 12.7% | > 5% | NCCCCN [Putrescine] | 
20 | 11.4% | 4.7% |  | NCCN(CCN)CCN [Tris(2-aminoethyl)amine] | % peptide transported across membrane [5]: 41.0%
21 | 5.8% | 14.1% | > 5% | NCCc1ccc(O)cc1 [Tyramine] | % peptide transported across membrane [5]: 11.3%
